Values of other authors as cited in patent US20090311266A1, “Inhibitors of the endothelin signalling pathway and alphavbeta3 integrin receptor antagonists for combination therapy” (BASF AKTIENGESELLSCHAFT, priority 1999, published 2009).

Key:
[1] = tested on: porcine coronary injury model
[2] = tested on: ischemic complications after coronary interventions
[3] = tested on: pigs with coronary artery stents; conditions: 28 days of oral treatment (b.i.d.)

## cyclo[R-G-D-Mamb-A] [XJ 735]
[1]
  less lumen stenosis: 2.9 fold
  reduction of neointimal hyperplasia: 43%

## abciximab: anti-platelet integrin αIIbβ3 antibody abciximab (c7E3 Fab, Reopro®)
[2]
  suppression of ischemic complications (endpoints death, MI or repeat intervention): sustained suppression of ischemic complications

## CCCCN(CCCC)C(=O)CN1C[C@H](c2ccc3c(c2)OCO3)[C@@H](C(=O)O)[C@@H]1c1ccc(OC)cc1 (relative stereo) [A 127722, trans-trans-2-(4-methoxyphenyl)-4-(3,4-methylendioxyphenyl)-1-(2-(N,N-dibutylamino)-2-oxoethyl)-pyrrolidine-3-carboxylic acid]
[3]
  maximal reduction in neointima formation: about 30%
